Measurements reported in patent US20070134259A1, “Methods and compositions for pharmacologially controlled targeted immunotherapy” (priority 2005, published 2007).

Tests used:
[1] = target: T1, purified integrin αvβ3 (Homo sapiens, UniProt P05106+P06756); assay: ELISA on purified receptor: RGD-STZ ligand mediated ternary complex formation with anti-STZ rabbit serum; format: binding
T1 construct: purchased Chemicon
Description: Indirect recognition of integrin by streptavidin mediated by RGD-biotin was used as positive control.
96 well polystyrene plates (Nunc) were coated with 1 μg/ml of purified integrin αvβ3 (Chemicon) in buffer: 50 mM Hepes , 0.1 M NaCl, 2 mM CaCl2, 1 mM MnCl2, 1 mM MgCl2 pH 7.5. Blocking was performed with 3% BSA in the same buffer for at least 1 hr.
Ternary complex formation was obtained in concurrent or sequential mode. For sequential mode experiment the ELISA plate was incubated with RGD-STZ (root of ten dilutions starting from 10 μg/ml); 2 hr, room temperature, followed by anti-STZ rabbit serum diluted 3000 times, 1 hr RT. In the concurrent mode the incubation mixture contained both RGD-STZ and anti-STZ rabbit serum. Serum concentration was kept constant (1/3000) while RGD-STZ concentration was varied as before; incubation time 2 hr. The formed complex was detected with goat anti-Rabbit HRP conjugate. Dilutions were made in same buffer supplemented with 0.05% Tween and 0.1% BSA. BSA was not included in the washing steps.
Solid-phase assays were conducted in two different formats: concurrent and sequential incubation. In the concurrent format, RGD-STZ was premixed with rabbit serum 1E6 and incubated on the plate, which was pre-coated with integrin αvβ3. In the sequential format, RGD-STZ was incubated on the integrin coated plate, washed and rabbit serum 1E6 was applied. In both formats, the signal was developed by detection of rabbit antibodies with anti-rabbit HRP antibody conjugate. […] This range of IBAIT concentrations in which a stable ternary complex is produced constitutes a therapeutic window, where the IBAIT can be applied for targeting immunoglobulins to malignancies.
That is, the sequential addition of antibody results in the continued formation of stable ternary complexes until receptor saturation plateaus.

[2] = tested on: HTB-14 cells; assay: Ligand-mediated immunostaining of cells via RGD-STZ and anti-STZ serum; format: cell-based; conditions: sequential: RGD-STZ, formaldehyde fixation, anti-STZ serum
Description: Cells could be stained through the ligand mediated association of antibody to the integrin molecule on the cell.
Ligand-mediated staining of HTB-14 cells was performed by incubations in sequential order. Cell were first treated with RGD-STZ then fixed with formaldehyde and stained using anti-STZ serum.
Cells were cultivated as described above. For staining, 6 well tissue culture plate containing chambered cover glasses was placed on ice and medium (DMEM, 10% FBS) replaced with same medium containing mixture of RGD-STZ and anti-STZ serum premixed at proportion giving highest signal in ELISA assay (˜10 μg of RGD-STZ in ml of rabbit serum). Mixture of RGD-STZ and serum was diluted in medium 30, 300 and 3000 times.
After 30 min of incubation specimens were washed with ice cold medium 3 times and incubated with Goat anti-Rabbit Alexa488 at concentration 10 μg/ml in DMEM. After 3 rinses with ice cold DMEM cells were fixed with 10% paraformaldehyde in PBS at room temperature, washed with PBS and mounted as above.
In some experiments cells were primed with RGD-STZ (50 μg/ml in DMEM) on ice for 20 min. then fixed with paraformaldehyde and stained further like described in first protocol.

T1 sequence (P06756 31-889 limits assumed): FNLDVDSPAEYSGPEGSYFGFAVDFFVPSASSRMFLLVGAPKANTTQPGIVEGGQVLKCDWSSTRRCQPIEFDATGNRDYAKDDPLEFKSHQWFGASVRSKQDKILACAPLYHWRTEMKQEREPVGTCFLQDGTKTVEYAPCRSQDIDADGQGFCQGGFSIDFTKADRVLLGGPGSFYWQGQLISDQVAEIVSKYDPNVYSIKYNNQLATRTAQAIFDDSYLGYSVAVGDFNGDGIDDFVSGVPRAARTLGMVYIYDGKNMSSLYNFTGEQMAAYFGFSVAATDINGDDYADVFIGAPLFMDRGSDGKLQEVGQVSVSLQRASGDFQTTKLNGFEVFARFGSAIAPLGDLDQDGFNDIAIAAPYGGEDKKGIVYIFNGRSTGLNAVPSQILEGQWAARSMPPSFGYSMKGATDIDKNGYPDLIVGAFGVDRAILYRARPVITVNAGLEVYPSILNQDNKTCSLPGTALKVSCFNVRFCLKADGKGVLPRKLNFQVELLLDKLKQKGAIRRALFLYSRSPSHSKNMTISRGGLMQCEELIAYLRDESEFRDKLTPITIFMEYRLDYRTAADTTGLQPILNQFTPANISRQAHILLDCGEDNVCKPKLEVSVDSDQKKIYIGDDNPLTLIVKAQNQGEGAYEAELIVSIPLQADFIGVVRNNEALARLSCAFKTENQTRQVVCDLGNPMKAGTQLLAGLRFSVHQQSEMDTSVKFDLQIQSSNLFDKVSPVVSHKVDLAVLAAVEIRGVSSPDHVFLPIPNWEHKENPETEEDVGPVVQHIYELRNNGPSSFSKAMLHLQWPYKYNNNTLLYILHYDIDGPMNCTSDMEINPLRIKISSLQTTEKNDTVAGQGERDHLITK
T1 sequence (P06756 891-1048 partner limits assumed): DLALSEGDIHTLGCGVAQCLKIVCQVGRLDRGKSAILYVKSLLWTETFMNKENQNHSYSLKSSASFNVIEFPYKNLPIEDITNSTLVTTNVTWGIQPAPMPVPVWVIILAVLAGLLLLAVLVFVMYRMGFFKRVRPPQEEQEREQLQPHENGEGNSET
T1 sequence (P05106 27-788): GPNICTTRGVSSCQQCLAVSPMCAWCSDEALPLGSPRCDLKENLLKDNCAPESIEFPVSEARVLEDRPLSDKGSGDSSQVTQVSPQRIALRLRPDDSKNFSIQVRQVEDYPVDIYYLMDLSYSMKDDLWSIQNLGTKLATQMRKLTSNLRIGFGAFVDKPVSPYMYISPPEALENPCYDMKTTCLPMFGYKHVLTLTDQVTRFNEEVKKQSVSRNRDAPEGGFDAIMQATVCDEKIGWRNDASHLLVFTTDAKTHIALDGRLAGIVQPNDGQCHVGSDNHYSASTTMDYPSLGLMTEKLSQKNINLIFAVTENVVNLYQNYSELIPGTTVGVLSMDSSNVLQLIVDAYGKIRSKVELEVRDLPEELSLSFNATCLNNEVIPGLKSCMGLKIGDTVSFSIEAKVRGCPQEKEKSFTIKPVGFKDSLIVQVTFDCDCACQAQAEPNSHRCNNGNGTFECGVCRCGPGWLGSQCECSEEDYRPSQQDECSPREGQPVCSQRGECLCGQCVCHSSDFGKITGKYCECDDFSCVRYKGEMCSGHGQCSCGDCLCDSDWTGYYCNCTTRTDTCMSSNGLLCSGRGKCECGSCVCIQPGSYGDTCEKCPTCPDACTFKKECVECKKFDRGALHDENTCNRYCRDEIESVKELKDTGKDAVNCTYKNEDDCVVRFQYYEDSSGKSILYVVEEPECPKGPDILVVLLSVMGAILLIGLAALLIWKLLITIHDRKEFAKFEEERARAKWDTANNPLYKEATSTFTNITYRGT

In the case of cyclo(-R-G-D-f-K(STZ)) [RGD-STZ], the “concentration dependence of ELISA signal (ternary complex formation), concurrent incubation” value ([1]; concurrent format: RGD-STZ premixed with rabbit serum, incubated on integrin coated plate, FIG. 5A) is reported as “bell-shaped concentration dependencies”, the “indirect recognition of the integrin by anti-STZ antibodies mediated by the ligand” value ([1]; plates coated with purified αvβ3 integrin, anti-STZ rabbit serum, goat anti-Rabbit HRP detection) is reported as “excellent indirect recognition” and the “proportion of RGD-STZ and anti-STZ serum giving highest signal in ELISA assay” value ([1]; premixed RGD-STZ and anti-STZ serum) is reported as ~10 μg of RGD-STZ in ml of rabbit serum. The “concentration dependence of ELISA signal (ternary complex formation), sequential incubation” value ([1]; sequential format: RGD-STZ incubated on integrin coated plate, washed, then rabbit serum, FIG. 5B) was “signal that steadily increased with increasing RGD-STZ (IBAIT) concentration” and the “ligand-mediated staining pattern of cells” value [2] was “distinct pattern of dots on the plasma membrane as well as general fluorescent illumination of cells”.
